Structures can show the parent of a compound that is named as a salt.
Key:
[1] = oral administration to human Type 2 diabetics; cited from earlier work
[2] = In vitro dissolution of sitagliptin phosphate from the drug film layer; format: physicochemical; conditions: FIG. 4

SMILES | effect on fasting glucose, postprandial glucose excursion and HbA1c [1] | dissolution of sitagliptin phosphate compared with sitagliptin phosphate in JANUMET ([2]; comparator JANUMET (immediate-release metformin HCl and sitagliptin phosphate)) | time to complete dissolution of sitagliptin phosphate from the drug film layer ([2]; drug film layer of the composition)
Cn1c(=O)cc(N2CCC[C@@H](N)C2)n(Cc2ccccc2C#N)c1=O [alogliptin] | reduce fasting glucose and postprandial glucose excursion | – | –
N[C@@H](CC(=O)N1CCn2c(nnc2C(F)(F)F)C1)Cc1cc(F)c(F)cc1F [sitagliptin phosphate, dihydrogenphosphate salt of (2R)-4-oxo-4-[3-(trifluoromethyl)-5,6-dihydro[1,2,4]triazolo[4,3-a]pyrazin-7(8H)-yl]-1-(2,4,5-trifluorophenyl)butan-2-amine] | – | comparable | ≤ 30 min
N[C@@H](CC(=O)N1CCn2c(nnc2C(F)(F)F)C1)Cc1cc(F)c(F)cc1F [sitagliptin, (2R)-4-oxo-4-[3-(trifluoromethyl)-5,6-dihydro[1,2,4]triazolo[4,3-a]pyrazin-7(8H)-yl]-1-(2,4,5-trifluorophenyl)butan-2-amine] | reduce fasting glucose and postprandial glucose excursion | – | –
N#C[C@@H]1CCCN1C(=O)CNC12CC3CC(CC(O)(C3)C1)C2 [vildagliptin] | reduce fasting glucose and postprandial glucose excursion | – | –
